Patent publication US11382956B2, “Amylin analogues” (Zealand Pharma A/S, priority 2016, dated 2022)
Numbered stars: 1 amine (or outer) side, 2 acyl side, 3 side chain; on linkers, the order of the positions; unused ones are H or OH. Bridge positions count the residues as written; N and C are the ends. Square brackets hold non-standard residues; d marks the D form. Peptide text beside a SMILES is read from it. * marks the point of attachment. C20 diacid = O=C(O)CCCCCCCCCCCCCCCCCCC(=O)*; γGlu = O=C(O)[C@H](CCC(=O)[*:2])N[*:1]; Hyp = O=C(O)[C@@H]1C[C@@H](O)CN1; NMeI = CC[C@H](C)[C@H](NC)C(=O)O; hLys = NCCCCC[C@H](N)C(=O)O; Dab = NCC[C@H](N)C(=O)O; Sar = CNCC(=O)O

Tests used:
[1] = target: T1, recombinant human amylin 3 receptor (hAMYR3) (Homo sapiens, UniProt O60896+P30988); assay: hAMYR3 cAMP assay (AlphaScreen) in 1321N1 cells; assay type: cell-based; settings: cAMP formation, 45 min stimulation
T1 construct: host or cells: human astrocytoma cell line 1321N1
T1 sequence (P30988 25-474): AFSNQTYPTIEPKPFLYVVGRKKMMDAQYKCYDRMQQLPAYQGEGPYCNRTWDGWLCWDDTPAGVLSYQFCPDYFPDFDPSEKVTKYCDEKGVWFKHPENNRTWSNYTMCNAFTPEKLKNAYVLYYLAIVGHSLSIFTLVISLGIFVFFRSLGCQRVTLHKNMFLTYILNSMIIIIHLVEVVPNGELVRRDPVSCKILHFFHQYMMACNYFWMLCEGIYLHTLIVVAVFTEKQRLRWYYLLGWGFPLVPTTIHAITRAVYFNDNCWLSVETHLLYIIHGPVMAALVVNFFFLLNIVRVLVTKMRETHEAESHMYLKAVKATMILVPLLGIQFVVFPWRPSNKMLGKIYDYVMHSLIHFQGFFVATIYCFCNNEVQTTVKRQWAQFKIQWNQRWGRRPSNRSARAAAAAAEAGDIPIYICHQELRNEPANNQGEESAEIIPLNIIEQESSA
T1 sequence (O60896 24-148 partner): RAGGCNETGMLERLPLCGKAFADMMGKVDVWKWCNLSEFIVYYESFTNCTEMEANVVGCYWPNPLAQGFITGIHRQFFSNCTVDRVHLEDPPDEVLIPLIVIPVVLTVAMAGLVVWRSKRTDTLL
Procedure, shortened: (§1)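 1321N1 astrocytoma cells expressing recombinant human calcitonin receptor alone or with RAMP3 (AMY3) stimulated 45 min at room temperature with peptide in IBMX-containing buffer. cAMP quantified by AlphaScreen after 1 h bead incubation; EC50 fitted from at least 7 concentrations.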

[2] = target: T2, recombinant human calcitonin receptor (hCT-R) (Homo sapiens, UniProt P30988); assay: hCT-R cAMP assay (AlphaScreen) in 1321N1 cells; assay type: cell-based; settings: cAMP formation, 45 min stimulation
T2 construct: host or cells: human astrocytoma cell line 1321N1
T2 sequence (P30988 25-474): T1 sequence (P30988 25-474)
Procedure, shortened: as §1

[3] = Chemical stability, alternative analysis in MilliQ water with pH adjusted, 40° C. (RP-HPLC); assay type: physicochemical; settings: for % degradation after 8 days at 40° C. pH4: pH adjusted to 4.0, 8 days; for % degradation after 8 days at 40° C. pH7.5: pH adjusted to 7.5, 8 days; for % degradation after 8 days at 40° C. pH9: pH adjusted to 9.0, 8 days
Method: In an alternative analysis, peptides were dissolved in MilliQ water and pH adjusted to 4.0, 7.5 or 9.0. Samples were placed in glass vials and incubated at 40° C. The samples were analyzed by RP-HPLC on a C8 column with gradient elution using a trifluoroacetic acid/acetonitrile/water eluent system. The area-percentage (area-%) of the main peak was determined by UV spectroscopy at 220 nm at each sampling time point.
The % degradation was calculated by subtracting the […].
The results of the chemical stability assessment after 8 days of incubation time are summarized as % degradation in Table 3 (below).

EC50 [1] | EC50 [2] | % degradation after 8 days at 40° C. pH4 [3] | % degradation after 8 days at 40° C. pH7.5 [3] | % degradation after 8 days at 40° C. pH9 [3] | SMILES
0.442 nM | 1.04 nM | 1.7% | 2.1% | 3.0% | CC[C@H](C)[C@@H](C(=O)N[C@@H](CC(C)C)C(=O)N[C@@H](CO)C(=O)N[C@@H](CO)C(=O)N[C@H](C(=O)N[C@@H](CCC(=O)O)C(=O)N[C@H](C(=O)NCC(=O)N[C@@H](CO)C(=O)N[C@@H](CC(N)=O)C(=O)N[C@H](C(=O)N1C[C@H](O)C[C@H]1C(N)=O)[C@@H](C)O)C(C)C)[C@@H](C)O)N(C)C(=O)[C@H](C)NC(=O)CN(C)C(=O)[C@H](Cc1ccccc1)NC(=O)[C@H](CO)NC(=O)[C@H](CO)NC(=O)[C@H](CCCNC(=N)N)NC(=O)[C@H](CCC(N)=O)NC(=O)[C@H](CC(C)C)NC(=O)[C@H](Cc1ccccc1)NC(=O)[C@H](Cc1c[nH]cn1)NC(=O)[C@H](C)NC(=O)[C@H](CC(C)C)NC(=O)[C@H](CCCNC(=N)N)NC(=O)[C@H](CCC(=O)O)NC(=O)[C@@H](NC(=O)[C@H](C)NC(=O)[C@@H]1CCC(=O)NCC[C@H](NC(=O)[C@H](CCCNC(=N)N)NC(=O)CC[C@H](NC(=O)CCCCCCCCCCCCCCCCCCC(=O)O)C(=O)O)C(=O)NCC(=O)N[C@@H]([C@@H](C)O)C(=O)N[C@@H](C)C(=O)N[C@@H]([C@@H](C)O)C(=O)N1)[C@@H](C)O [Compound 49, [19CD]-isoGlu-R-Dab()-GTATE()ATERLAHFLQRSSF-Gly(Me)-A-Ile(Me)-LSSTEVGSNT-Hyp-NH2] ({C20 diacid-γGlu}-R[Dab]GTATEATERLAHFLQRSSF[Sar]A[NMeI]LSSTEVGSNT[Hyp]-NH2; lactam 2-7)
0.006 nM | 0.028 nM | 3.9% | 6.2% | 4.2% | CC[C@H](C)[C@@H](C(=O)N[C@@H](CC(C)C)C(=O)N[C@@H](CO)C(=O)N[C@@H](CO)C(=O)N[C@H](C(=O)N[C@@H](CCC(=O)O)C(=O)N[C@H](C(=O)NCC(=O)N[C@@H](CO)C(=O)N[C@@H](CC(N)=O)C(=O)N[C@H](C(=O)N1C[C@H](O)C[C@H]1C(N)=O)[C@@H](C)O)C(C)C)[C@@H](C)O)N(C)C(=O)[C@H](C)NC(=O)CN(C)C(=O)[C@H](Cc1ccccc1)NC(=O)[C@H](CO)NC(=O)[C@H](CO)NC(=O)[C@H](CCCNC(=N)N)NC(=O)[C@H](CCC(N)=O)NC(=O)[C@H](CC(C)C)NC(=O)[C@H](Cc1ccccc1)NC(=O)[C@H](Cc1c[nH]cn1)NC(=O)[C@H](C)NC(=O)[C@H](CC(C)C)NC(=O)[C@H](CCCNC(=N)N)NC(=O)[C@H](CCC(=O)O)NC(=O)[C@@H](NC(=O)[C@H](C)NC(=O)[C@@H]1CCCCCNC(=O)C[C@H](NC(=O)[C@H](CCCNC(=N)N)NC(=O)CC[C@H](NC(=O)CCCCCCCCCCCCCCCCCCC(=O)O)C(=O)O)C(=O)NCC(=O)N[C@@H]([C@@H](C)O)C(=O)N[C@@H](C)C(=O)N[C@@H]([C@@H](C)O)C(=O)N1)[C@@H](C)O [Compound 19, [19CD]-isoGlu-RD()GTAT-hLys()-ATERLAHFLQRSSF-Gly(Me)-A-Ile(Me)-LSSTEVGSNT-Hyp-NH2] ({C20 diacid-γGlu}-RDGTAT[hLys]ATERLAHFLQRSSF[Sar]A[NMeI]LSSTEVGSNT[Hyp]-NH2; lactam 2-7)
